In patent publication US12492181B2, “Gem-disubstituted piperidine melanocortin subtype-2 receptor (MC2R) antagonists and uses thereof” (Crinetics Pharmaceuticals, Inc., priority 2019, dated 2025):

Target: T1, hMC2 receptor (crude hMC2R membranes from CRE-bla-CHO-K1 cells stably expressing hMC2 receptor and hMRAP accessory protein) (Homo sapiens, UniProt Q01718)
T1 construct: crude membrane fractions
Experiment: hMC2 membrane binding assay ([125I]ACTH (1-39) Tyr23, SPA)
Conditions: displacement of 0.2 nM [125I]ACTH (1-39) Tyr23 from hMC2R membranes, 1.5 hours at room temperature; read-out: MC2R binding potency
Method in brief: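 Ki values come from non-linear regression of SPA scintillation counts, with compounds displacing [125I]ACTH(1-39) Tyr23. Membranes come from CRE-bla-CHO-K1 cells stably expressing hMC2 receptor together with hMRAP. They are preincubated with WGA-coated PVT SPA beads in 50 mM HEPES pH 7.4 with 0.20% BSA, Mg2+, Ca2+ and protease inhibitors.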

T1 sequence (Q01718 whole entry): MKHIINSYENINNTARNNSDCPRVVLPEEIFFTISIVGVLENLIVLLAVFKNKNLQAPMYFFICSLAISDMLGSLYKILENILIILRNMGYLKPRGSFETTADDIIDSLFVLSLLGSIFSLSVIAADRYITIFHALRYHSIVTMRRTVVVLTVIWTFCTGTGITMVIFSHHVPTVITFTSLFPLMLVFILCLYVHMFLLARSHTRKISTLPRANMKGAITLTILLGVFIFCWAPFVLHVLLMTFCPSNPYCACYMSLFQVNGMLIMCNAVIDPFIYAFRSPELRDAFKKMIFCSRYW
T1 sequence (Q8TCY5 whole entry partner): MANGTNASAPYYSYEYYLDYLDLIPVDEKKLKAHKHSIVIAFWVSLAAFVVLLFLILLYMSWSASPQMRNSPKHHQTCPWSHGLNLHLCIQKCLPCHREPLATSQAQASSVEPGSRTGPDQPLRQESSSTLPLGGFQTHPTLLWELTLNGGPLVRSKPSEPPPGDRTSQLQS

Row | SMILES | Ki [nM]
1 | COc1ccccc1-c1ncc(C2(C(=O)NCCN(C)C)CCN(c3ccc(C(F)(F)F)cc3F)CC2)cc1F [Compound 1-285, N-[2-(dimethylamino)ethyl]-1-[2-fluoro-4-(trifluoromethyl)phenyl]-4-[5-fluoro-6-(2-methoxyphenyl)pyridin-3-yl]piperidine-4-carboxamide] | < 10
2 | COc1ccccc1-c1ccc(C2(C(=O)NC[C@@H]3C[C@@H](F)CN3C)CCN(c3ccc(C(F)(F)F)cc3C#N)CC2)cn1 [Compound 1-250, 1-[2-cyano-4-(trifluoromethyl)phenyl]-N-{[(2S,4R)-4-fluoro-1-methylpyrrolidin-2-yl]methyl}-4-[6-(2-methoxyphenyl)pyridin-3-yl]piperidine-4-carboxamide] | < 10
3 | CCOc1ncccc1-c1ncc(C2(C(=O)N[C@@H](C)CNC)CCN(c3ccc(Cl)cc3C#N)CC2)cc1F [Compound 1-323, 1-(4-chloro-2-cyanophenyl)-4-{2′-ethoxy-3-fluoro-[2,3′-bipyridin]-5-yl}-N-[(2S)-1-(methylamino)propan-2-yl]piperidine-4-carboxamide] | < 10
4 | CN1C[C@H](F)C[C@H]1CNC(=O)C1(c2ccc(-c3cccn3C)nc2)CCN(c2ccc(C(F)(F)F)cc2C#N)CC1 [Compound 1-278, 1-[2-cyano-4-(trifluoromethyl)phenyl]-N-{[(2S,4R)-4-fluoro-1-methylpyrrolidin-2-yl]methyl}-4-[6-(1-methyl-1H-pyrrol-2-yl)pyridin-3-yl]piperidine-4-carboxamide] | < 10
5 | CCOc1ncccc1-c1ccc(C2(C(=O)NC3CN(C)C3)CCN(c3ccc(C(F)(F)F)cc3C#N)CC2)nn1 [Compound 1-140, 1-[2-cyano-4-(trifluoromethyl)phenyl]-4-[6-(2-ethoxypyridin-3-yl)pyridazin-3-yl]-N-(1-methylazetidin-3-yl)piperidine-4-carboxamide] | < 10
6 | CCOc1ccccc1-c1ccc(C2(C(=O)N[C@H]3CCN(C)C3)CCN(c3ccc(C(F)(F)F)cc3Cl)CC2)cn1 [Compound 1-97, 1-[2-chloro-4-(trifluoromethyl)phenyl]-4-[6-(2-ethoxyphenyl)pyridin-3-yl]-N-[(3S)-1-methylpyrrolidin-3-yl]piperidine-4-carboxamide] | < 10
7 | CN1CC[C@H](OC(=O)NC2(c3ccc(-c4cccn4C)nc3)CCN(c3ccc(C(F)(F)F)cc3C#N)CC2)C1 [Compound 2-42, (3S)-1-methylpyrrolidin-3-yl N-{1-[2-cyano-4-(trifluoromethyl)phenyl]-4-[6-(1-methyl-1H-pyrrol-2-yl)pyridin-3-yl]piperidin-4-yl}carbamate] | < 10
8 | CCOc1ncccc1-c1ccc(C2(NC(=O)[C@@H]3CCN(C)C3)CCN(c3ccc(C(F)(F)F)cc3C#N)CC2)cn1 [Compound 2-7, (3R)—N-{1-[2-cyano-4-(trifluoromethyl)phenyl]-4-{2′-ethoxy-[2,3′-bipyridin]-5-yl}piperidin-4-yl}-1-methylpyrrolidine-3-carboxamidev] | < 10
9 | CN1CC[C@@H](NC(=O)C2(c3ccc(-c4cccc5cnn(C)c45)nc3)CCN(c3ccc(C(F)(F)F)cc3C#N)CC2)C1 [Compound 1-73, 1-[2-cyano-4-(trifluoromethyl)phenyl]-4-[6-(1-methyl-1H-indazol-7-yl)pyridin-3-yl]-N-[(3R)-1-methylpyrrolidin-3-yl]piperidine-4-carboxamide] | < 10
10 | COc1ccc(F)cc1-c1ccc(C2(C(=O)N[C@H]3CCN(C)C3)CCN(c3ccc(C(F)(F)F)cc3Cl)CC2)cn1 [Compound 1-155, 1-[2-chloro-4-(trifluoromethyl)phenyl]-4-[6-(5-fluoro-2-methoxyphenyl)pyridin-3-yl]-N-[(3S)-1-methylpyrrolidin-3-yl]piperidine-4-carboxamide] | < 10
11 | CCOc1ccccc1-c1ncc(C2(C(=O)N[C@H]3CCN(C)C3)CCN(c3ccc(C(F)(F)F)cc3Cl)CC2)cc1F [Compound 1-202, 1-[2-chloro-4-(trifluoromethyl)phenyl]-4-[6-(2-ethoxyphenyl)-5-fluoropyridin-3-yl]-N-[(3S)-1-methylpyrrolidin-3-yl]piperidine-4-carboxamide] | < 10
12 | CCOc1ncccc1-c1ccc(C2(C(=O)NC[C@@H](CO)N(C)C)CCN(c3ccc(C(F)(F)F)cc3C#N)CC2)cn1 [Compound 1-48, 1-[2-cyano-4-(trifluoromethyl)phenyl]-N-[(2S)-2-(dimethylamino)-3-hydroxypropyl]-4-{2′-ethoxy-[2,3′-bipyridin]-5-yl}piperidine-4-carboxamide] | < 10
13 | Cn1cccc1-c1ccc(C2(C(=O)N[C@@H]3CN4CCC3CC4)CCN(c3ccc(C(F)(F)F)cc3C#N)CC2)cn1 [Compound 1-187, N-[(3S)-1-azabicyclo[2.2.2]octan-3-yl]-1-[2-cyano-4-(trifluoromethyl)phenyl]-4-[6-(1-methyl-1H-pyrrol-2-yl)pyridin-3-yl]piperidine-4-carboxamide] | < 10
14 | CCOc1ncccc1-c1ccc(C2(C(=O)NCCNC)CCN(c3ccc(C(F)(F)F)cc3C#N)CC2)cc1 [Compound 1-7, 1-[2-cyano-4-(trifluoromethyl)phenyl]-4-[4-(2-ethoxypyridin-3-yl)phenyl]-N-[2-(methylamino)ethyl]piperidine-4-carboxamide] | < 10
15 | CCOc1ccccc1-c1ncc(C2(C(=O)NCCNC)CCN(c3ccc(C(F)(F)F)cc3F)CC2)cc1F [Compound 1-290, 4-[6-(2-ethoxyphenyl)-5-fluoropyridin-3-yl]-1-[2-fluoro-4-(trifluoromethyl)phenyl]-N-[2-(methylamino)ethyl]piperidine-4-carboxamide] | < 10
16 | CNCCNC(=O)C1(c2ccc(-c3cccnc3OC)nc2)CCN(c2ccc(C(F)(F)F)cc2F)CC1 [Compound 1-272, 1-[2-fluoro-4-(trifluoromethyl)phenyl]-4-{2′-methoxy-[2,3′-bipyridin]-5-yl}-N-[2-(methylamino)ethyl]piperidine-4-carboxamide] | < 10
17 | CN1C[C@@H](F)C[C@H]1CNC(=O)C1(c2ccc(-c3cccn3C)nc2)CCN(c2ccc(C(F)(F)F)cc2C#N)CC1 [Compound 1-277, 1-[2-cyano-4-(trifluoromethyl)phenyl]-N-{[(2S,4S)-4-fluoro-1-methylpyrrolidin-2-yl]methyl}-4-[6-(1-methyl-1H-pyrrol-2-yl)pyridin-3-yl]piperidine-4-carboxamide] | < 10
18 | COc1ccccc1-c1ncc(C2(C(=O)NCCCN(C)C)CCN(c3ccc(C(F)(F)F)cc3C#N)CC2)cc1F [Compound 1-199, 1-[2-cyano-4-(trifluoromethyl)phenyl]-N-[3-(dimethylamino)propyl]-4-[5-fluoro-6-(2-methoxyphenyl)pyridin-3-yl]piperidine-4-carboxamide] | < 10
19 | CCOc1ccccc1-c1ccc(C2(C(=O)N[C@H]3CCN(C)C3)CCN(c3ccc(Cl)cc3Cl)CC2)cn1 [Compound 1-95, 1-(2,4-dichlorophenyl)-4-[6-(2-ethoxyphenyl)pyridin-3-yl]-N-[(3S)-1-methylpyrrolidin-3-yl]piperidine-4-carboxamide] | < 10
20 | CN1C[C@H](NC(=O)C2(c3ccc(-c4cccn4C)nc3)CCN(c3ccc(C(F)(F)F)cc3C#N)CC2)[C@@H](O)C1 [Compound 1-270, 1-[2-cyano-4-(trifluoromethyl)phenyl]-N-[(3S,4S)-4-hydroxy-1-methylpyrrolidin-3-yl]-4-[6-(1-methyl-1H-pyrrol-2-yl)pyridin-3-yl]piperidine-4-carboxamide] | < 10
21 | CCOc1ncccc1-c1ncc(C2(C(=O)N[C@@H](C)CN(C)C)CCN(c3ccc(C(F)(F)F)cc3C#N)CC2)cc1F [Compound 1-319, 1-[2-cyano-4-(trifluoromethyl)phenyl]-N-[(2S)-1-(dimethylamino)propan-2-yl]-4-{2′-ethoxy-3-fluoro-[2,3′-bipyridin]-5-yl}piperidine-4-carboxamide] | < 10
22 | CCOc1ncccc1-c1ccc(C2(C(=O)N[C@@H](C)CN(C)C)CCN(c3ccc(Cl)cc3Cl)CC2)cn1 [Compound 1-318, 1-(2,4-dichlorophenyl)-N-[(2S)-1-(dimethylamino)propan-2-yl]-4-{2′-ethoxy-[2,3′-bipyridin]-5-yl}piperidine-4-carboxamide] | < 10
23 | CNC[C@H](C)NC(=O)C1(c2ccc(-c3cccnc3OC)nc2)CCN(c2ccc(C(F)(F)F)cc2Cl)CC1 [Compound 1-307, 1-[2-chloro-4-(trifluoromethyl)phenyl]-4-{2′-methoxy-[2,3′-bipyridin]-5-yl}-N-[(2S)-1-(methylamino)propan-2-yl]piperidine-4-carboxamide] | < 10
24 | CCOc1ccccc1-c1ccc(C2(NC(=O)C3CN(C)C3)CCN(c3ccc(Cl)cc3C#N)CC2)cn1 [Compound 2-25, N-[1-(4-chloro-2-cyanophenyl)-4-[6-(2-ethoxyphenyl)pyridin-3-yl]piperidin-4-yl]-1-methylazetidine-3-carboxamide] | < 10
25 | COc1ccccc1-c1ccc(C2(C(=O)NC[C@@H]3CCN3C)CCN(c3ccc(C(F)(F)F)cc3C#N)CC2)cn1 [Compound 1-217, 1-[2-cyano-4-(trifluoromethyl)phenyl]-4-[6-(2-methoxyphenyl)pyridine-3-yl]-N-{[(2S)-1-methylazetidin-2-yl]methyl}piperidine-4-carboxamide] | < 10
26 | CN1CC[C@@H](NC(=O)C2(c3ccc(-c4ccccc4OC(F)F)nc3)CCN(c3ccc(C(F)(F)F)cc3C#N)CC2)C1 [Compound 1-114, 1-[2-cyano-4-(trifluoromethyl)phenyl]-4-{6-[2-(difluoromethoxy)phenyl]pyridin-3-yl}-N-[(3R)-1-methylpyrrolidin-3-yl]piperidine-4-carboxamide] | < 10
27 | CN1CC[C@@H](NC(=O)C2(c3ccc(-c4ccccc4F)nc3)CCN(c3ccc(C(F)(F)F)cc3C#N)CC2)C1 [Compound 1-74, 1-[2-cyano-4-(trifluoromethyl)phenyl]-4-[6-(2-fluorophenyl)pyridin-3-yl]-N-[(3R)-1-methylpyrrolidin-3-yl]piperidine-4-carboxamide] | < 10
